Test [1] deals with T1, NCAPG (Homo sapiens, UniProt Q9BPX3).
T1 construct: ystrep (Strep tag); made in house; host or cells: Sf9 insect cells (baculovirus)
Put plainly: Fluorescence polarisation binding assay of 5-FAM peptides with NCAPG. Particulars: FP, 100 nM 5-FAM peptide; Kd not fit. How it is done: (§1) Fluorescence polarisation binding assays were performed by mixing 100 nM of 5-FAM labelled peptide (Reagents and Tools Table) with indicated concentration of protein in FP buffer (20 mM HEPES pH 8, 150 mM KCl, 2.5 mM MgCl, 5% glycerol, 1 mM DTT) and incubated at room temperature for 15 min before reading the plate with a POLARstar Omega plate reader (BMG). The plate was read three times at 5 min intervals to ensure samples reached equilibrium and three technical replicates were performed, setting up a new plate, with distinct protein aliquot in each case. Data was analysed and plotted in Graphpad Prism and Kd fit using the following: FP=FPmax/2[Pep]([C]+[Pep]+Kd)−([C]+[Pep]+Kd)^2−4.[C].[Pep] Where [C] and [Pep] are the concentration, in μM, of condensin and 5-FAM labelled peptide respectively, FPmax the maximum change in fluorescence polarisation in mP and Kd is the equilibrium dissociation constant. Fit curves are plotted, with standard deviation.

The subject of the next test is CI NdelH, D2delC. In words: Fluorescence polarisation competition assay, 5-FAM NCAPH peptide and CI NdelH, D2delC. It is filed as binding, human. To be noted: 100 nM 5-FAM-NCAPH55-77 with 4 μM CID2ΔC,NΔH. As for the experimental part: FP competition assays were performed for NCAPD2 peptide, using a fixed concentration of 100 nM of F-NCAPD2-C1376-1398 and 6 μM of NCAPG, in the presence or absence of 10 μM KIF4A WT1206-1228 or KIF4A Mut1206-1228 peptide. Similar assays were performed for NCAPH2 peptide, using a fixed concentration of 100 nM of F-N-NCAPH55-77 and 4 μM CI NdelH, D2delC, in the presence or absence of 100 μM of KIF4A WT1206-1228 or KIF4A Mut1206-1228 peptide.
(§2) Background was determined by measuring 100 nM of F-NCAPD2-C1376-1398 or F-N-NCAPH55-77 in the presence of peptide buffer (20 mM HEPES pH 8), KIF4A WT1206-1228 or KIF4A Mut1206-1228 peptide, and subtracted from each measurement. Assay was performed with three technical repeats, setting up a new plate with distinct protein aliquot each time, reading the plate three times to ensure equilibrium. Data analysed and plotted using GraphPad Prism.
In general terms: In fluorescence polarisation assays a small probe gives low polarisation when free and higher when bound to something large.

In test [2] the target is T2, CID2ΔC (condensin I lacking NCAPD2 C-terminal region) (Homo sapiens, UniProt Q9BPX3).
T2 construct: made in house; host or cells: Sf9 insect cells (baculovirus)
In words: Fluorescence polarisation binding assay of 5-FAM peptides with CID2ΔC. To be noted: FP, 100 nM 5-FAM peptide titrated with CID2ΔC, three technical replicates, ± standard error. As for the experimental part:
as §1

The subject of the next test is condensin I. In words: ATPase activity assay (EnzCheck phosphate assay), basal. It is filed as biochemical, human. As for the experimental part:
ATPase assays were performed based on the method described previously (Voulgaris and Gligoris, [2019]) using the EnzCheck phosphate assay kit (Invitrogen). Condensin I complexes were used at a final concentration of 50 nM, while HAWK subunits were used at 100 nM and peptides were used at 50 μM. Basal ATPase assays were performed with final salt concentration of 100 mM KCl. DNA titrations were performed with 50 bp dsDNA annealed by heating to 98 degrees and slowly cooling in annealing buffer (10 mM Tris pH 7.5, 50 mM NaCl, 1 mM EDTA).
Plate was read with a POLARstar Omega plate reader (BMG).

For test [3], the target named is T1, NCAPG. Put plainly: Fluorescence polarisation competition assay, 5-FAM NCAPD2 peptide and NCAPG. Particulars: 100 nM 5-FAM-NCAPD2_1376-1398, 10 μM competing peptide, mean ± SD. It is filed as binding. How it is done: […] Similar assays were performed for NCAPH2 peptide, using a fixed concentration of 100 nM of F-N-NCAPH55-77 and 4 μM CI NdelH, D2delC, in the presence or absence of 100 μM of KIF4A WT1206-1228 or KIF4A Mut1206-1228 peptide.
as §2

Residues, ends and D or L forms follow the SMILES beside them. No end group written: not given here. *: point of attachment. 5FAM = O=C1OC2(c3ccc(O)cc3Oc3cc(O)ccc32)c2ccc(C(=O)*)cc21; 5‑FAM = 5-carboxyfluorescein label

This note sets out measurements from publication PMC11790958, “Molecular mechanism of condensin I activation by KIF4A” (The EMBO Journal, 2024).

For “5-FAM-FPQNDDEKERLQRRRSRVFDLQF ({5‑FAM}-FPQNDDEKERLQRRRSRVFDLQF) [5-FAM-NCAPH55–77, 5-FAM labelled peptide of NCAPH residues 55-77]”, the “binding to NCAPG” value with NCAPG [1] was “low affinity”. Also, the “FP signal without competitor” value in the test with CI NdelH, D2delC is recorded as 37 ± 7 mP; in the test on CI NdelH, D2delC (listed as NCAPH peptide), ~ 35 mP.

The Kd is the constant that tells how readily two partners part at equilibrium. Turning to `CC[C@H](C)[C@H](NC(=O)[C@@H]1CCCN1C(=O)[C@H](CO)NC(=O)[C@H](CS)NC(=O)CNC(=O)[C@H](CO)NC(=O)[C@H](Cc1ccccc1)NC(=O)[C@H](Cc1ccccc1)NC(=O)[C@H](CO)NC(=O)[C@@H](NC(=O)[C@H](CC(N)=O)NC(=O)[C@H](CO)NC(=O)[C@H](C)NC(=O)[C@H](CC(C)C)NC(=O)[C@H](C)NC(=O)[C@H](CCCNC(=N)N)NC(=O)[C@H](CCCCN)NC(=O)[C@H](CCCCN)NC(=O)[C@H](CCCCN)NC(=O)[C@H](CCCCN)NC(=O)CNC(=O)[C@@H]1CCCN1C(=O)c1ccc2c(c1)C(=O)OC21c2ccc(O)cc2Oc2cc(O)ccc21)[C@@H](C)O)C(=O)N[C@@H](CCC(=O)O)C(=O)O` [5-FAM-KIF4A1206–1228] (5FAM-PGKKKKRALASNTSFFSGCSPIE-OH), in test [2], the affinity, expressed as Kd, was 2.8 ± 0.2 µM.

Turning to “KIF4Amut peptide (PGKKAAAAGAAATSFFSGCSPIE)”, the Fit rates was 10.29 ATPase per molecule, per minute in the test on condensin I (CI D2delC + peptide, replicate 1); 11.11 ATPase per molecule, per minute in the test on condensin I (CI D2delC + peptide, replicate 2); 10.2 ATPase per molecule, per minute with condensin I (CI D2delC + peptide, replicate 3); 15.62 ATPase per molecule, per minute with condensin I (CI D2delC + peptide, replicate 4); 27.72 ATPase per molecule, per minute with condensin I (CI D2delC + peptide, replicate 5); 29.41 ATPase per molecule, per minute with condensin I (CI NdelH + peptide, replicate 1). The Fit rates is on record as 35.68 ATPase per molecule, per minute in the test with condensin I (CI NdelH + peptide, replicate 2); 31.03 ATPase per molecule, per minute in the test on condensin I (CI NdelH + peptide, replicate 3); 28.18 ATPase per molecule, per minute in the test with condensin I (CI NdelH D2delC + peptide, replicate 1); 29.84 ATPase per molecule, per minute in the test with condensin I (CI NdelH D2delC + peptide, replicate 2); 39.65 ATPase per molecule, per minute in the test on condensin I (CI NdelH D2delC + peptide, replicate 3); 10.26 ATPase per molecule, per minute in the test on condensin I (CIWT + peptide, replicate 1). Moreover, the Fit rates in the test with condensin I (CIWT + peptide, replicate 2) is reported as 7.215 ATPase per molecule, per minute; in the test on condensin I (CIWT + peptide, replicate 3), 8.551 ATPase per molecule, per minute; with condensin I (CIWT + peptide, replicate 4) it was 10.06 ATPase per molecule, per minute; in the test on condensin I (CIWT + peptide, replicate 5), 14.77 ATPase per molecule, per minute; in the test on condensin I (CIWT + peptide, replicate 6), 10.26 ATPase per molecule, per minute.

PGKKAAAAGAAATSFFSGCSPIE [KIF4A mut]: the “effect of peptide on ATPase activity of CI” value with condensin I (50 nM CI, 50 μM peptide, 3 repeats) is listed as “no increase in activity”. Moreover, the “FP signal on addition of competing peptide” value on NCAPG [3] is given as “not significantly changed”.
